This experiment addresses T1, Cloned Human Dopamine D3 Receptors (Homo sapiens, UniProt P35462).
T1 construct: expressed in transfected cells; membrane homogenate
Nature of the experiment: [N-Methyl-3H]Spiroperidol binding to cloned human dopamine D3 receptors. The text has this: [N-Methyl-^3H]Spiroperidol Binding to Cloned Human Dopamine D3 Receptors
This assay measures the in vitro activity of compounds on cloned human dopamine (D3) receptors and predicts the direct dopamine-blocking properties of putative neuropsychiatric agents at human dopamine D3 receptors.
The D3 gene was isolated from a human striatal cDNA library (Stratagene). The gene was sequenced and sub-cloned into the expression vector RC/RSV (Invitrogen). CHO (Chinese Hamster Ovary) cells were stably transfected with 10 µg of the D3/RSV plasmid using the DOTAP method from Boehringer Mannheim and 72 clones that were G418 resistant were isolated. Using mRNA and binding displacement data a single high expressing clone was identified. This clone was then grown in large batches for the purpose of developing a 96 well format assay.
• 1. One plate (10 cm) with approximately 2-3 million D3 cells per plate is incubated with 1 ml of Trypsin-EDTA at room temperature for -2 min or until cells have lifted off plates. Four ml of Ham's F12 + 10% Fetal Bovine Serum + 1% Penicillin/Streptomycin + G418 (400 µg/ml) medium are added to resuspend cells and 1 ml of this is added to each large plate (15 cm) containing 19 ml of the same medium as mentioned above. • 2. The 5 large plates are incubated at 37°C + 5% CO2 for - 3 days or until the cells are confluent. • 3. After these plates are confluent, they are split into 10 large plates. Medium is aspirated off, 2 ml of Trypsin-EDTA are added to each plate and plates are incubated at RT for 2 min or until cells have lifted off the plate. Eight ml of the F12 medium (same medium as #1 above) are added to each plate (10 ml total) to resuspend the cells and 5 ml are transferred to the 2 new plates containing 15 ml of the F12 media. • 4. The 10 large plates are incubated at 37°C + 5% CO2 for ∼ 2 days or until the cells are confluent. • 5. The 10 large plates are split into 60 large plates (using Trypsin-EDTA as #3 except 4 ml of F12 medium are added to resuspend cells and 1 ml is aliquoted to 6 new plates containing 19 ml of F12 medium each). • 6. Plates are incubated at 37°C + 5% CO2 for - 3 days or until cell are confluent. • 7. The 60 large plates are then split into 60 roller bottles (100-150 million cells/bottle). Medium is aspirated off , 2 ml of Trypsin-EDTA are added to each plate and incubated at RT for -2 minutes or until cells have lifted off plates. Eight ml of F12 medium are added to each plate to resuspend cells and the entire 10 ml are added to 1 roller bottle containing 90 ml of the F12 medium. • 8. The 60 roller bottles are immediately placed on their sides and transferred to the roller bottle incubator. They are incubated at 37°C + 5% CO2 for ~ 3-5 days. Cells are spun at 30-40% motor speed in the Forma incubator. • 9. Medium is poured off and cells are washed 2X in PBS. • 10. Cells are then scraped off in 20 ml of PBS and the bottles are rinsed again with 5 ml of PBS to remove any remaining cells. Cells are stored on ice before membrane prepration. • 11. The yield for 60 D3 roller bottles has varied from - 260-500 mg. Note: All tissue culture reagents are from Gibco-BRL.
The cells are harvested into 250 ml centrifuge tubes with 100 volumes of cold phosphate buffered saline (PBS) and spun down (1200xG for 10 min at 4°C). The medium is removed and 100 ml PBS are added to each centrifuge tube, cells are resuspened and spun down again. The PBS is removed and the final pellet is homogenized in an appropriate volume of 10% DMSO with a polytron on ice at a medium setting.
A 200 µl sample membrane homogenate is added to 200 µl of 1% SDS, vortexed and allowed to stand for 5 min. Aliquots (25, 50 and 100 µl) of this mixture are assayed in duplicate following the standard Bio-Rad DC protein assay protocol (kit catalog number 500-0112) and using reagent S. Absorbance readings are made at 750 nm (note: the most accurate protein OD readings are between 0.1-0.5 units). […]

Where [1] appears, read: Table 2, unit inferred, read-out: d3Ki.

Like-named read-outs stand apart in the source and are kept apart here.

T1 sequence (P35462 whole entry): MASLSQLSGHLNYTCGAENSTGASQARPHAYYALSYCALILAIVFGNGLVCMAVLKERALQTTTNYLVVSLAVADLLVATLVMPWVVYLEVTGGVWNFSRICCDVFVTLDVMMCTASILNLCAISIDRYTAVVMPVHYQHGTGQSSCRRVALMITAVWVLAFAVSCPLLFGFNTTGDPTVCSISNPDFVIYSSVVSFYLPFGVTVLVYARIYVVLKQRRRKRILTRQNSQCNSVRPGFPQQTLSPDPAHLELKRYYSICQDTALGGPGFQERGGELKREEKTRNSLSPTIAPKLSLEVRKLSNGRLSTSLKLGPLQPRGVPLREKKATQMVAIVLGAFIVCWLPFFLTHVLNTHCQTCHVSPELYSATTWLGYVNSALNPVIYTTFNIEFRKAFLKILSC

With `O=C(NC1CCC(CO)CC1)C1CC1CN1CCN(c2csc3cc(C(F)(F)F)ccc23)CC1` (stereo not drawn) [compound 816593], the Ki (read-out: d3Ki) turned out to be 7.47 nM.
Turning to `CC1CCC(NC(=O)C2CC2CN2CCN(c3cccc(Cl)c3Cl)CC2)CC1` (stereo not drawn) [compound 817037], the Ki under setting [1] is 0.98 nM.
On the same count and under the same terms, the figure for `COc1ccc(Cl)cc1N1CCN(CC2CC2C(=O)NC2CCC(C)CC2)CC1` (stereo not drawn) [compound 817038] is 0.952 nM; for `CC1CCC(NC(=O)C2CC2CN2CCN(c3ccc(C(F)(F)F)cc3)CC2)CC1` (stereo not drawn) [compound 817039] it is 14.8 nM; for `C[C@H]1CC[C@H](NC(=O)[C@@H]2C[C@H]2CN2CCN(c3ccccc3C#N)CC2)CC1` [compound 817040] it is 0.804 nM.
Same read-out and setting: for `CCC1CCC(NC(=O)C2CC2CN2CCN(c3cccc(Cl)c3Cl)CC2)CC1` (stereo not drawn) [compound 817041] the value was 0.776 nM.
Still for that read-out and setting: the figure for `CCC1CCC(NC(=O)C2CC2CN2CCN(c3cc(Cl)ccc3OC)CC2)CC1` (stereo not drawn) [compound 817042] is 0.615 nM; for `CCC1CCC(NC(=O)C2CC2CN2CCN(c3ccc(C(F)(F)F)cc3)CC2)CC1` (stereo not drawn) [compound 817043] it is 7.2 nM; for `CC[C@H]1CC[C@H](NC(=O)[C@@H]2C[C@H]2CN2CCN(c3ccccc3C#N)CC2)CC1` [compound 817044] it is 1.1 nM.
Consider `Cc1ccc(N2CCN(C[C@@H]3C[C@H]3C(=O)N[C@H]3CC[C@H](C)CC3)CC2)cc1C` [compound 817045], for which, under setting [1], the Ki was 5.36 nM.
Regarding `CCC1CCC(NC(=O)C2CC2CN2CCN(c3ccc(C)c(C)c3)CC2)CC1` (stereo not drawn) [compound 817046], the Ki under setting [1] was determined as 1.92 nM.
The same measure, in the same setting: the figure for `O=C(N[C@H]1CC[C@H](C(=O)N2CCCC2)CC1)[C@@H]1C[C@H]1CN1CCN(c2csc3cc(C(F)(F)F)ccc23)CC1` [compound 817047] is 2.86 nM; for `CCN(CC)C(=O)[C@H]1CC[C@H](NC(=O)[C@@H]2C[C@H]2CN2CCN(c3csc4cc(C(F)(F)F)ccc34)CC2)CC1` [compound 817048] it is 2.85 nM; for `COCCNC(=O)C1CCC(NC(=O)C2CC2CN2CCN(c3csc4cc(C(F)(F)F)ccc34)CC2)CC1` (stereo not drawn) [compound 817049] it is 7.02 nM.
Same read-out and setting: for `C[C@]1(O)CC[C@H](NC(=O)[C@@H]2C[C@H]2CN2CCN(c3csc4cc(C(F)(F)F)ccc34)CC2)CC1` [compound 817050] the value was 2.15 nM.
Still for that read-out and setting: for `C[C@]1(O)CC[C@@H](NC(=O)[C@@H]2C[C@H]2CN2CCN(c3csc4cc(C(F)(F)F)ccc34)CC2)CC1` [compound 817051] the value was 3.47 nM; for `CC[C@H]1CC[C@H](NC(=O)[C@@H]2C[C@H]2CN2CCN(c3ccc(Cl)c(Cl)c3)CC2)CC1` [compound 817090], 2.17 nM.
For `CC[C@H]1CC[C@H](NC(=O)[C@@H]2C[C@H]2CN2CCN(c3ccc(C)cc3C)CC2)CC1` [compound 817091], the Ki under setting [1] is 3.98 nM.
Regarding `CC[C@H]1CC[C@H](NC(=O)[C@@H]2C[C@H]2CN2CCN(c3ncc(C(F)(F)F)cc3Cl)CC2)CC1` [compound 817093], the Ki under setting [1] was 5.97 nM.
Regarding `COc1ccc(N2CCN(C[C@@H]3C[C@H]3C(=O)N[C@H]3CC[C@H](C)CC3)CC2)c(OC)c1` [compound 817094], the Ki under setting [1] was found to be 8.89 nM.
In the case of `C[C@H]1CC[C@H](NC(=O)[C@@H]2C[C@H]2CN2CCN(c3cc(Cl)cc(Cl)c3)CC2)CC1` [compound 817095], under setting [1], the Ki came out at 0.671 nM.
The same measure, in the same setting: for `CC[C@H]1CC[C@H](NC(=O)[C@@H]2C[C@H]2CN2CCN(c3ccc(OC)cc3OC)CC2)CC1` [compound 817096] the value was 9.09 nM.
The same measure, in the same setting: for `CCC1CCC(NC(=O)C2CC2CN2CCN(c3cc(Cl)cc(Cl)c3)CC2)CC1` (stereo not drawn) [compound 817097] the value was 0.636 nM; for `C[C@H]1CC[C@H](NC(=O)[C@@H]2C[C@H]2CN2CCN(c3cccc4[nH]ccc34)CC2)CC1` [compound 817098], 1.06 nM.
Still for that read-out and setting: for `C[C@H]1CC[C@H](NC(=O)[C@@H]2C[C@H]2CN2CCN(c3cccc4ccccc34)CC2)CC1` [compound 817099] the value was 1.1 nM; for `CCC1CCC(NC(=O)C2CC2CN2CCN(c3cccc4[nH]ccc34)CC2)CC1` (stereo not drawn) [compound 817100], 0.75 nM; for `CC[C@H]1CC[C@H](NC(=O)[C@@H]2C[C@H]2CN2CCN(c3cccc4ccccc34)CC2)CC1` [compound 817101], 0.547 nM.
Regarding `CC[C@H]1CC[C@H](NC(=O)[C@@H]2C[C@H]2CN2CCN(c3cc(C)ccc3C)CC2)CC1` [compound 817102], the Ki under setting [1] turned out to be 7.75 nM.
On the same count and under the same terms, for `CCC1CCC(NC(=O)C2CC2CN2CCCN(c3cc(C(F)(F)F)nc(C(C)(C)C)n3)CC2)CC1` (stereo not drawn) [compound 817260] the value was 12.5 nM.
Still for that read-out and setting: for `CC1CCC(NC(=O)C2CC2CN2CCCN(c3cc(C(F)(F)F)nc(C(C)(C)C)n3)CC2)CC1` (stereo not drawn) [compound 817261] the value was 9.23 nM; for `CCCc1cc(N2CCCN(C[C@@H]3C[C@H]3C(=O)N[C@H]3CC[C@H](CC)CC3)CC2)nc(C(C)(C)C)n1` [compound 817272], 1.72 nM; for `CCCc1cc(N2CCCN(C[C@@H]3C[C@H]3C(=O)N[C@H]3CC[C@H](C)CC3)CC2)nc(C(C)(C)C)n1` [compound 817273], 3.05 nM.
As for `Cc1ccccc1N1CCN(CC2CC2C(=O)NC2CCC(C)CC2)CC1` (stereo not drawn) [compound 817478], the Ki (read-out: d3Ki) amounted to 1.46 nM.
The same measure, in the same setting: the figure for `CC[C@H]1CC[C@H](NC(=O)[C@@H]2C[C@H]2CN2CCN(c3ncc(C(F)(F)F)cc3Cl)CC2)CC1` [compound 817480] is 3.07 nM.
Consider `C[C@H]1CC[C@H](NC(=O)[C@@H]2C[C@H]2CN2CCN(c3ncccc3Cl)CC2)CC1` [compound 817565], for which the Ki under setting [1] turned out to be 1.73 nM.
Still for that read-out and setting: the figure for `CC[C@H]1CC[C@H](NC(=O)[C@@H]2C[C@H]2CN2CCN(c3ncccc3Cl)CC2)CC1` [compound 817566] is 2.46 nM; for `CC1CCC(NC(=O)C2CC2CN2CCCN(c3cnccn3)CC2)CC1` (stereo not drawn) [compound 817567] it is 80.6 nM; for `CC[C@H]1CC[C@H](NC(=O)[C@@H]2C[C@H]2CN2CCCN(c3cnccn3)CC2)CC1` [compound 817568] it is 36.3 nM.
For the compound `CC[C@H]1CC[C@H](NC(=O)[C@@H]2C[C@H]2CN2CCN(c3cc(C)ccc3C)CC2)CC1` [compound 817570], the Ki (read-out: d3Ki) is 6.24 nM.
Still for that read-out and setting: the figure for `CC[C@H]1CC[C@H](NC(=O)[C@@H]2C[C@H]2CN2CCN(c3ccc(C)cc3C)CC2)CC1` [compound 817571] is 2.85 nM.
With `C[C@H]1CC[C@H](NC(=O)[C@H]2C[C@@H]2CN2CCN(c3noc4ccsc34)CC2)CC1` [compound 817893], the Ki (d3Ki, Table 2, unit inferred) was 245 nM.
Regarding `CC1CCC(NC(=O)C2CC2CN2CCN(c3noc4ccsc34)CC2)CC1` (stereo not drawn) [compound 818427], the Ki (d3Ki, Table 2, unit inferred) was 6.07 nM.
Consider `CCC1(O)CCC(NC(=O)[C@@H]2C[C@H]2CN2CCN(c3csc4cc(C(F)(F)F)ccc34)CC2)CC1` (stereo partly drawn) [compound 818497], for which the Ki under setting [1] amounted to 5.52 nM.
On the same count and under the same terms, for `CC1CCC(NC(=O)C2CC2CN2CCCN(c3ccccn3)CC2)CC1` (stereo not drawn) [compound 818498] the value was 25.6 nM; for `CC[C@H]1CC[C@H](NC(=O)[C@@H]2C[C@H]2CN2CCN(c3csc4cc(C(F)(F)F)ccc34)CC2)CC1` [compound 818499], 22.1 nM; for `CCC1CCC(NC(=O)C2CC2CN2CCN(c3noc4ccsc34)CC2)CC1` (stereo not drawn) [compound 818574], 9.6 nM.
In the case of `CCC1CCC(NC(=O)C2CC2CN2CCN(c3ccccc3C)CC2)CC1` (stereo not drawn) [compound 818675], under “read-out: d3Ki”, the Ki came to 0.711 nM.
As for `CN(C(=O)CCCCN1CCN(c2csc3cc(F)ccc23)CC1)c1ccccc1` [compound 822129], the Ki under setting [1] amounted to 38 nM.

Values taken from EP1935887A1, “Heterocyclic substituted carbonyl derivatives and their use as dopamine D3 receptor ligands” (Aventis Pharmaceuticals Inc., priority 2001, dated 2002).
